The text below walks through data of PubChem BioAssay AID1626 (SRMLSC, 2009).

The subject of this assay is M. tuberculosis H37Rv growth inhibition. The assay can be described thus: M. tuberculosis H37Rv growth inhibitors, H37Rv strain (AID 1626). The note with it: for IC90: measured here: IC90 against H37Rv; for CC50: measured here: Vero cell cytotoxicity.

The term IC50 denotes the concentration at which inhibition is half-maximal. By IC90 is commonly meant the concentration needed for an effect of 90%. Usually CC50 stands for the concentration giving 50% cytotoxicity. A low value points to harm at low concentration.

Take `CC(C)c1ccc(C2C3=C(CC(C)(C)CC3=O)NC3=C2C(=O)c2ccccc23)cc1` (stereo not given): the IC50 was 50.6 µM, the IC90 was greater than 100 µM and the CC50 was greater than 40 µM.

In the case of `COc1cc(C)c(/C=C/C(C)=C/C=C/C(C)=C/C(=O)O)c(C)c1C`, the concentration for half-maximal inhibition (IC50) is 0.488 µM, the IC90 is greater than 100 µM and the CC50 is greater than 40 µM.

Consider `Cc1ccc(-c2nnc3sc(C4COc5ccccc5O4)nn23)cc1` (stereo not given), for which the IC50 was 4.77 µM and the IC90 is greater than 100 µM.

`CCCCCc1cc(=O)oc2c(C(CCN3CCCCC3)c3ccc(OC)cc3)c(OC)cc(OC)c12` (stereo not given): the IC50 is 2.86 µM, the IC90 is 3.91 µM and the CC50 stood at 14.9 µM.

Take `O=C(CNC(=O)c1ccc(-c2ccccc2)cc1)OCc1c(F)cccc1Cl`: the IC50 was 7.49 µM and the IC90 was greater than 100 µM.

As to `CCC(=O)OCCNc1cc(SCCC(=O)OC)c2nonc2c1[N+](=O)[O-]`, the IC50 was 12.2 µM and the 90% effect concentration (IC90) was 19.5 µM.

Consider `O=C(CSc1ccccn1)Nc1ccc2ccccc2c1`, for which the IC50 is 8.69 µM and the concentration for an effect of 90% (IC90) is greater than 100 µM.

`CCOc1ccc(N=C(/C(C(=O)C(=O)N2CCOCC2)=C(\O)c2ccccc2)c2ccccc2)cc1`: the IC50 is 38.6 µM and the 90% effect concentration (IC90) is greater than 100 µM.

On to `Cc1nn(Cc2ccccc2Cl)c2sc(C(=O)NCc3ccc4c(c3)OCO4)cc12`, for which the IC50 was 5.45 µM and the 90% effect concentration (IC90) was determined as 7.16 µM.

Consider `Nc1nc(-c2cccc(Br)c2)cs1`, for which the half-maximal inhibitory concentration (IC50) was 23.8 µM and the IC90 is greater than 100 µM.

With `Cc1nc(N)nc(N)c1/C=C/C(C)(C)c1ccc(Cl)cc1`, the IC50 is 0.562 µM, the IC90 is 1.29 µM and the CC50 is less than 0.078 µM.

Take `Cc1sc2nc(-c3ccccn3)[nH]c(=O)c2c1-c1ccccc1`: the half-maximal inhibitory concentration (IC50) was 0.69 µM, the concentration for an effect of 90% (IC90) turned out to be 1.69 µM and the CC50 is 15.2 µM.

With `CCOc1ccc(-c2nnc(SCC(=O)Nc3cc(C)on3)o2)cc1`, the IC50 is 1.63 µM, the IC90 amounted to 1.95 µM and the cytotoxic concentration (CC50) is greater than 40 µM.

With `O=C(Nc1nnc(-c2ccc(Cl)cc2)o1)c1ccccc1Br`, the IC50 is 1.12 µM, the IC90 came to 3.35 µM and the CC50 is greater than 40 µM.

On to `CC(C)(C)c1ccc(-c2cn(-c3ccc(Br)cc3)c3[n+]2CCCS3)cc1`, for which the half-maximal inhibitory concentration (IC50) was 2.62 µM, the IC90 was determined as 4.97 µM and the CC50 was 13.3 µM.

For `CCOC(=O)C1(CCOc2ccccc2)CCN(C(=O)c2ccc(-n3cccn3)cc2)CC1`, the IC50 was 27.2 µM, the concentration for an effect of 90% (IC90) is greater than 100 µM and the half-maximal cytotoxic concentration (CC50) was greater than 40 µM.

In turn, `Cc1ccccc1C(=O)N1CCc2cc(-c3nc(NC(=O)Cc4ccc5c(c4)OCO5)sc3C)ccc21` registered a CC50 greater than 40 µM.

Take `O=C(Nc1ccc(CN2CCOCC2)cc1)c1ccc(-c2ccc(Br)cc2)o1`: the 50% inhibitory concentration (IC50) is 7.09 µM, the IC90 stood at 13.2 µM and the CC50 was found to be 32 µM.

As for `CCn1cc(C(=O)NCc2cccc(F)c2)c(=O)c2cc(F)c(N3CCN(C(=O)c4ccco4)CC3)cc21`, the IC50 was 2.69 µM, the IC90 came to 6.52 µM and the CC50 worked out at 27 µM.

On to `Cc1ccc(-n2cc(CN(C)Cc3nccn3C)c(-c3cccc(C)c3)n2)cc1`, for which the concentration for half-maximal inhibition (IC50) was 9.75 µM, the IC90 was determined as 15.9 µM and the CC50 is greater than 40 µM.

In the case of `O=C(/C=C/c1ccccc1)c1c(O)n(CCc2ccccc2)c(=O)[nH]c1=O`, the IC50 was 9.75 µM, the concentration for an effect of 90% (IC90) was found to be 11.6 µM and the cytotoxic concentration (CC50) worked out at 37.1 µM.

As for `CCCc1cc(NCc2ccccn2)n2nc(C)c(-c3ccccc3)c2n1`, the half-inhibitory concentration (IC50) is 4.33 µM, the IC90 was 7.09 µM and the half-maximal cytotoxic concentration (CC50) is greater than 40 µM.

Take `Cc1nc(C)c(/C(O)=C/c2nc3ccccc3oc2=O)s1`: the half-maximal inhibitory concentration (IC50) was less than 0.195 µM and the IC90 was greater than 100 µM.

For `N=C(N)c1ccc(OCCCCCOc2ccc(C(=N)N)cc2)cc1`, the half-maximal inhibitory concentration (IC50) was 1.51 µM, the 90% effect concentration (IC90) was found to be 1.72 µM and the half-maximal cytotoxic concentration (CC50) was greater than 40 µM.

Take `CC(=O)Nc1nc(-c2cc([N+](=O)[O-])cs2)cs1`: the half-inhibitory concentration (IC50) was less than 0.195 µM and the IC90 is greater than 100 µM.

Regarding `Cc1ccc(S(=O)(=O)NC(=O)Nc2nc(-c3ccc(F)c(F)c3)cs2)cc1`, the IC50 was 6.15 µM and the IC90 was greater than 100 µM.

As for `Cc1ccc(CN=c2c([N+](=O)[O-])nn(-c3cccc(Cl)c3)n2O)cc1`, the half-maximal inhibitory concentration (IC50) is 2.8 µM and the IC90 stood at 2.94 µM.

With `CCN1CCN(c2cc(C(C)(C)C)nc3c(-c4ccccc4)c(C)nn23)CC1`, the IC50 is 3.6 µM, the 90% effect concentration (IC90) worked out at 5.63 µM and the 50% cytotoxic concentration (CC50) was determined as 30.6 µM.

Consider `O=C(Nc1nc(NC(=O)c2ccco2)n(-c2ccccc2)n1)c1ccccc1`, for which the IC50 is 2.65 µM, the IC90 stood at 6.79 µM and the half-maximal cytotoxic concentration (CC50) is 8.86 µM.

With `COc1ccc(OCC(=O)Nc2ccc3nc(C)sc3c2)cc1`, the IC50 was 10.7 µM and the concentration for an effect of 90% (IC90) is greater than 100 µM.

With `O=S1(=O)CCC(N=Cc2ccc(-c3ccc(Cl)cc3)o2)C1` (stereo not given), the concentration for half-maximal inhibition (IC50) is 6.54 µM and the concentration for an effect of 90% (IC90) was greater than 100 µM.

Take `COc1cccc(NC(=O)c2cc(-c3ccncc3)nc3c(C)cc(C)cc23)c1`: the IC50 is 10.9 µM, the IC90 was 18.5 µM and the CC50 was greater than 40 µM.

With `CCOC(=O)c1cnc(-n2nc(C)cc2C)nc1NC1CCCC1`, the concentration for half-maximal inhibition (IC50) was 0.755 µM, the 90% effect concentration (IC90) turned out to be 0.859 µM and the CC50 amounted to 15.2 µM.

`COc1ccc(NC(=O)CSC2=NCCN2)cc1` yielded an IC90 greater than 100 µM.

Regarding `COc1ccc(OC(=O)c2cnn(-c3ccccc3)c2C)cc1`, the IC50 was 71.2 µM and the 90% effect concentration (IC90) is greater than 100 µM.

`COc1cnc(-c2ccccn2)nc1Oc1ccc(F)cc1F`: the IC50 is 19.1 µM, the IC90 was greater than 100 µM and the CC50 was greater than 40 µM.

As for `O=c1[nH]c(CN2CCCCC2)nc2c1C1(CCCCC1)Cc1ccccc1-2`, the half-maximal inhibitory concentration (IC50) was 4.01 µM and the IC90 is greater than 100 µM.

As to `Cc1ccc(C2=Nc3ccccc3SC(c3cccc([N+](=O)[O-])c3)C2)cc1` (stereo not given), the IC50 was 3.71 µM, the IC90 is 5.74 µM and the CC50 amounted to 33 µM.

As to `CCOc1ccc(NC2c3ccccc3C(=O)N2Cc2ccco2)cc1` (stereo not given), the IC50 was 19.1 µM and the IC90 was greater than 100 µM.

In the case of `CCC(=O)Nc1nc2ccccc2n1Cc1ccc(C)cc1`, the half-maximal inhibitory concentration (IC50) is 1.39 µM, the concentration for an effect of 90% (IC90) worked out at 11 µM and the 50% cytotoxic concentration (CC50) is greater than 40 µM.

In the case of `O=C(/C=C/c1ccccc1)C1C(=O)c2ccccc2C1=O`, the half-inhibitory concentration (IC50) was 23.5 µM, the IC90 was found to be 26.5 µM and the CC50 turned out to be 32.1 µM.

As to `COc1ccc(NC2(C#N)CCCCC2)cc1`, the IC90 is greater than 100 µM.

As for `CCCCCc1cc(=O)oc2c(C(CCN3CCCC(C)C3)c3cc(OC)c(OC)c(OC)c3)c(OC)cc(OC)c12` (stereo not given), the IC50 is 7.65 µM, the IC90 came out at 9.84 µM and the cytotoxic concentration (CC50) stood at 14.5 µM.

Consider `C=CCn1c(O)c(C(CC)=Nc2ccc3c(c2)CCC3)c(=O)[nH]c1=O`, for which the concentration for half-maximal inhibition (IC50) was 17.8 µM and the IC90 was greater than 100 µM.

Consider `O=C(Nc1nnc(-c2ccc(F)cc2)o1)c1cccc([N+](=O)[O-])c1`, for which the IC50 was 5.68 µM, the IC90 is 14.8 µM and the CC50 stood at 12.4 µM.

On to `COc1ccc(CCNCC(O)Cn2c3ccccc3c3ccccc32)cc1OC` (stereo not given), for which the IC50 was 10.6 µM, the 90% effect concentration (IC90) amounted to 15.2 µM and the CC50 turned out to be 11.8 µM.

Turning to `Cc1nc2c(-c3ccc(Cl)cc3)c(C)[nH]n2c(=O)c1Cc1ccccc1`, the IC50 was 1.98 µM, the IC90 turned out to be 9.69 µM and the CC50 was 4.04 µM.

For `O/N=C/c1ccc2ccccc2c1`, the IC90 is greater than 100 µM.

Regarding `CCCOC(=O)CSc1nnc(-c2cc(OC)c(OC)c(OC)c2)o1`, the IC50 was 0.728 µM and the IC90 worked out at 1.83 µM.

`CC(Oc1ccc(Cl)cc1Cl)c1nc(-c2ccc(NC(=O)c3ccncc3)cc2)no1` (stereo not given): the half-inhibitory concentration (IC50) was 33.5 µM, the IC90 was greater than 100 µM and the CC50 is greater than 40 µM.

As to `Cc1ccc(Nc2nc(CSc3nnc(-c4cccs4)o3)cs2)cc1`, the IC50 is 6.8 µM, the concentration for an effect of 90% (IC90) came out at 15.9 µM and the CC50 was greater than 40 µM.

With `CCOC(=O)c1cc(-c2csc(COc3ccccc3)n2)on1`, the 50% inhibitory concentration (IC50) was 1.84 µM and the IC90 was determined as 35.2 µM.

On to `COC(=O)c1cc(-c2ccc(OC)c(OC)c2)on1`, for which the IC50 was less than 0.391 µM and the IC90 is greater than 100 µM.

Regarding `CC1CCCC(NCC(O)COC(c2ccc(F)cc2)c2ccc(F)cc2)C1C` (stereo not given), the half-maximal inhibitory concentration (IC50) is 5.69 µM, the IC90 worked out at 6.42 µM and the half-maximal cytotoxic concentration (CC50) turned out to be 24.3 µM.

For the compound `CCn1c(=O)c(C(=O)Nc2nc3ccccc3[nH]2)c(O)c2ccccc21`, the IC50 is 0.388 µM, the 90% effect concentration (IC90) amounted to 0.423 µM and the CC50 is greater than 40 µM.

Consider `COC(=O)C(CC(C)C)NC(=O)/C=C/c1ccccc1Cl` (stereo not given), for which the IC50 was 4.67 µM and the IC90 is 7.81 µM.

For the compound `COc1ccc(-c2csc(NC(C)c3nc4cc(Cl)c(N5CCCCC5)cc4n3CCCO)n2)cc1` (stereo not given), the half-inhibitory concentration (IC50) is 12.7 µM, the 90% effect concentration (IC90) was greater than 100 µM and the cytotoxic concentration (CC50) is greater than 40 µM.

As to `Cc1cc(NC2CCCCC2)nc(NCc2ccccc2)n1`, the half-maximal inhibitory concentration (IC50) is 10.3 µM, the concentration for an effect of 90% (IC90) stood at 13.2 µM and the CC50 came to 18.2 µM.

As for `COC(=O)C1C(O)=C(C=Nc2ccc3ccccc3c2)C(=O)CC1(C)C` (stereo not given), the IC50 was 33.7 µM and the concentration for an effect of 90% (IC90) is greater than 100 µM.

For `COc1ccc(N2CSC3=C(C#N)C(c4cccc(OC)c4OC)CC(=O)N3C2)cc1` (stereo not given), the IC50 is 54.7 µM and the concentration for an effect of 90% (IC90) is greater than 100 µM.

`COc1ccccc1C(=O)Nc1nnc(-c2ccc(Cl)cc2)o1`: the IC50 was 16.9 µM, the IC90 was greater than 100 µM and the half-maximal cytotoxic concentration (CC50) is greater than 40 µM.

`O=C(Nc1cccnc1)c1cc2cc(Br)ccc2oc1=O` yielded an IC90 greater than 100 µM.

For the compound `COc1ccc(N=C2CCS(=O)(=O)c3sccc32)cc1`, the half-maximal inhibitory concentration (IC50) is 54.3 µM and the IC90 was greater than 100 µM.

For `CCCc1cc(-c2nc(-c3ccc(C)cc3)cs2)ccn1`, the concentration for half-maximal inhibition (IC50) is 7.61 µM, the IC90 turned out to be 22.2 µM and the CC50 was greater than 40 µM.

For `COC(=O)CSc1nc(N)c(C#N)c(CC(C)C)c1C#N`, the concentration for half-maximal inhibition (IC50) is 2.91 µM and the 90% effect concentration (IC90) worked out at 57.5 µM.
